Results on 2 compounds are retold here after US10793535B2, “Heterocyclic glutaminase inhibitors” (Calithera Biosciences, Inc., priority 2012, dated 2020).

The test system of series [1] is Caco-2 cell monolayers. Kind of series: Caco-2 permeability assay. The class given is in vitro ADME, human. An excerpt:
Caco-2 cells are commonly used in a confluent monolayer on a cell culture insert filter. When cultured in this format and under specific conditions, the cells become differentiated and polarized such that their phenotype, morphologically and functionally resembles the enterocytes lining the small intestine. The cell monolayer provides a physical and biochemical barrier to the passage of small molecules, and is widely used across the pharmaceutical industry as an in vitro model of the human small intestinal mucosa to predict the absorption of orally administered drugs (Hidalgo et al., Gastroenterology, 1989; Artursson, J. Pharm. Sci., 1990). The correlation between the in vitro apparent permeability (P ? app) across Caco-2 monolayers and the in vivo absorption is well established (Artursson et al., Biochem. Biophys. Res. Comm., 1991).
The present assay was used to determine the bidirectional permeability of the compounds of the invention through Caco-2 cell monolayers. Caco-2 cells were grown in confluent monolayers where the media of both the apical (A) and basolateral (B) sides were at pH 7.4. Compounds were dosed at 1 μM in the presence of 200 μM Lucifer Yellow, on the apical side (A→B) or the basolateral side (B→A) for assessment, in duplicate.
The absorption potential of compounds were classified as either Low (P-app<1×10^−6 cm/s) or High (P-app>1×10^−6 cm/s).

A short description of series [2]: Pharmacokinetic studies in mice. The format is in vivo. To be noted: female, CD-1, mouse, plasma, po. How it is done: For PK studies performed in mice, female CD-1 mice, age 5-8 weeks, were dosed orally by gavage (10 mL/kg volume) with test compounds. At pre-determined time-points (e.g. 1, 3, and 6 hrs) post-dosing, groups of three mice were sacrificed by CO2 inhalation and blood collected via cardiac puncture. Blood samples were placed into K2 EDTA coated tubes and kept on ice. Samples were centrifuged at 2000×g for 10 minutes at 4° C. and plasma isolated. Plasma was stored at ˜70° C. until bioanalytical analysis.
(§1) The plasma samples were analyzed using Liquid chromatography tandem mass spectrometry (LC/MS/MS) methods. Frozen plasma samples were thawed on ice or room temperature. Aliquotes of study plasma samples and calibration samples prepared in the same matrix as the study samples were quenched in an organic solvent (methanol, acetonitrole or DMF) containing an internal standard. The mixtures were then centrifuged and filtered and the filtrates were injected to an LC/MS/MS system to determine concentrations of test compounds.

The subject of series [3] is P493-6 (myc "on") cells. In words: Cell proliferation assay. The format is cell-based. To be noted: read-out: Cell prolif P493 72 h IC50. An outline of the steps: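 P493-6 cells with myc on, 10,000 per well in RPMI/10% FBS, exposed to serially diluted compound (0.5% DMSO final) for 72 h at 37 °C, 5% CO2. Antiproliferative effect read by Cell Titer Glo luminescence or Viacount FACS viability count.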

A short description of series [4]: Pharmacokinetic studies in rats. The format is in vivo. To be noted: female, Sprague-Dawley, plasma, Rat. How it is done: For PK studies performed in rats, groups of three female Sprague-Dawley Rats, age 7-10 weeks, with jugular vein cannulae were dosed orally by gavage (5-10 mL/kg) with test compounds. Serial blood samples were collected via the jugular vein cannulae at multiple time-points pre and post-dose. Blood samples were placed into K2 EDTA coated tubes on kept on ice. Samples were centrifuged at 2500×g for 10 minutes at 4° C. and plasma isolated. Plasma was stored at ˜70° C. until bioanalytical analysis.
as §1

Series [5] deals with RPMI-8226 multiple myeloma xenograft. In words: Multiple myeloma xenograft study. The class given is in vivo, mouse. To be noted: RPMI-8226 xenograft, 200 mg/kg orally BID for 28 days. The method, then:
Female CB.17 SCID mice (n=20) age 8-12 weeks were implanted subcutaneously with 1×10^7 RPMI-8226 myeloma cells per mouse mixed 1:1 with Matrigel. […] For both groups, dosing was initiated when tumors reached a volume of 100-150 mm^3 and continued orally BID for 28 days. Tumors were measured with calipers two times per week and tumor volume calculated using the formula tumor volume (mm^3)=(a×b^2/2) where ‘b’ is the smallest diameter and ‘a’ is the largest perpendicular diameter. **P-value <0.01 (Two-sided T-test).

The test system of series [6] is H2122 lung adenocarcinoma xenograft. In words: Lung adenocarcinoma xenograft efficacy study. The format is in vivo, mouse. The settings on record: 200 mg/kg orally BID for 23 days. The method, then: Female scid/beige mice (n=20) age 6-8 weeks were implanted subcutaneously with 1×10^7 H2122 lung adenocarcinoma cells per mouse suspended in PBS. […] For both groups, dosing was initiated 24 hours post-implant and continued orally BID for 23 days. Tumors were measured with calipers three times per week and tumor volume calculated using the formula tumor volume (mm^3)=(a×b^2/2) where ‘b’ is the smallest diameter and ‘a’ is the largest perpendicular diameter. **P-value <0.01 (Two-sided T-test).

For series [7], the system named is multiple myeloma cells (MM1S cells, RPMI-8226 cells). In words: Treatment of multiple myeloma cells with a combination of drugs. The class given is cell-based. To be noted: 72 hours, Cell Titer Glo, combination indices (Calcusyn). How it is done: At the end of the incubation, cell viability was measured using Cell Titer Glo as per manufacturer's protocol (Promega, Madison, Wis.). Measured values for compound-treated cells were normalized to DMSO-treated cells and data is reported as a cell survival ratio with a value of 1 (one) corresponding to maximum cell survival and a value of 0 (zero) corresponding to no cell survival. Cell survival ratios for all compound treatments are represented as bar graphs. Combination indices were calculated using the Calcusyn program (biosoft.com) and reported for individual mixtures of compound 670 and pomalidomide [POM] (panels A &C) and individual mixtures of compound 670 and dexamethasone [DEX] (panels B & D). Compound mixtures that produced a synergistic anti-tumor activity are highlighted.

[8] abbreviates: 50 mg/kg, 50 mg/kg oral, 1% NMP/99% Gelucire, Solution.
Setting [9] is: 50 mg/kg, 50 mg/kg oral, Eudragit L100-55 solid dispersion, Suspension.
Setting [10] is: 50 mg/kg oral, Eudragit L100-55 solid dispersion, Suspension.
[11] abbreviates: 100 mg/kg, 100 mg/kg oral, 25% HPBCD/10 mM Citrate pH 2.2, Solution.
[12] abbreviates: 200 mg/kg, 200 mg/kg oral, 25% HPBCD/10 mM Citrate pH 2.2, Solution.
The mark [13] stands for this setting: 25 mg/kg oral, 20% HPBCD/10 mM Citrate pH 2.0, Solution.
[14] abbreviates: 80 mg/kg oral, 65% HPBCD/10 mM Citrate pH 2.6, Solution.
The mark [15] stands for this setting: 250 mg/kg oral, 40% HPBCD/10 mM Citrate pH 2.2, Solution.
The mark [16] stands for this setting: 500 mg/kg oral, 40% HPBCD/10 mM Citrate pH 2.2, Solution.

pIC50: −log10 of the molar value. Read-outs that look alike come from different tables or passages of the source.

Broadly, the Cmax is the maximum level reached in the sampled fluid or tissue. As usually defined, the Tmax is the time at which the peak concentration occurs. Usually pIC50 stands for the IC50 on a negative log10 scale, so that one unit is a factor of ten. Take `O=C(Cc1cccc(OC(F)(F)F)c1)Nc1ccc(CCCCc2nnc(NC(=O)Cc3ccccc3)s2)nn1` [Compound 585]: the “Significant Efflux” value in series [1] was “Yes (efflux ratios being significant when greater than or equal to 3 when the Papp (B→A) was greater than or equal to 1×10^−6 cm/s)”. The Cmax came out at 5.16 µM in series [2] (setting [8]), 0.93 µM in series [2] (setting [9]) and 1.15 µM in series [4] (setting [10]). In addition, the time to peak (Tmax) was determined as 1 h in series [2] (setting [8]), 3 h in series [2] (setting [9]) and 2 h in series [4] (setting [10]). Besides, the negative logarithm of the IC50 (pIC50) in series [3] (P493-6, 72 h) is 7.15.
As to `O=C(Cc1cccc(OC(F)(F)F)c1)Nc1ccc(CCCCc2nnc(NC(=O)Cc3ccccn3)s2)nn1` [Compound 670], the “Significant Efflux” value in series [1] is recorded as “Yes (efflux ratios being significant when greater than or equal to 3 when the Papp (B→A) was greater than or equal to 1×10^−6 cm/s)”. Further, the tumor size entry in series [5] and in series [6] was “reduced tumor size” in each case. Further, the peak concentration (Cmax) in series [2] (setting [11]) is 5.75 µM; in series [2] (setting [12]), 5.05 µM; in series [4] (setting [13]), 4.4 µM; in series [4] (setting [14]), 12.5 µM; in series [4] (setting [15]), 9.9 µM; in series [4] (setting [16]), 15.3 µM. The Tmax stood at 1 h in series [2] (setting [11]); 1 h in series [2] (setting [12]); 1 h in series [4] (setting [13]); 1 h in series [4] (setting [14]); 24 h in series [4] (setting [15]); 2 h in series [4] (setting [16]). Besides, the pIC50 in series [3] (72 h) was 7.52. Moreover, the “anti-tumor effect in combination with dexamethasone” value in series [7] is “synergizes”. Moreover, in series [7], the “anti-tumor effect in combination with pomalidomide” value is “synergizes”.
